The values that follow come from US20160033531A1, “METHOD AND COMPOSITIONS FOR DETECTING BINDING TO THE PREGNANE X RECEPTOR” (ST. JUDE CHILDREN'S RESEARCH HOSPITAL, priority 2013, published 2016).

Marks after values point to notes of the source that are not given here.

Series [1] addresses T1, GST-PXRLBD (Homo sapiens, UniProt O75469).
T1 construct: GST (N)
T1 sequence (O75469 146-433 limits assumed): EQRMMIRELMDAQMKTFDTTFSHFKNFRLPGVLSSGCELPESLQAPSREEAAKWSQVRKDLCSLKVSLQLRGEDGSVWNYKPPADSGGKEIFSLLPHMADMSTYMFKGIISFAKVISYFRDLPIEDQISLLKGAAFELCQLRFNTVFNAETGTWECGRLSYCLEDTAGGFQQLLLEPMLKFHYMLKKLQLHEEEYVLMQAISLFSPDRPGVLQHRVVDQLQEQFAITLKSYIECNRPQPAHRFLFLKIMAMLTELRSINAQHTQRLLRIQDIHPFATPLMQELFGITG
The series is described as follows: Interaction of BODIPY Fl-vindoline with GST-PXRLBD, Kd from specific binding curve. Conditions: buffer 50 mM Tris, 50 mM KCl, 1 mM CHAPS, 0.1 mg/mL BSA, 0.05 mM DTT, pH 7.5. The protocol:
Assay was performed using a buffer solution containing 50 mM Tris, 50 mM KCl, 1 mM CHAPS, 0.1 mg/mL BSA, and 0.05 mM DTT (pH=7.5).

Series [2] can be described thus: Solubility of test compound in the TR-FRET assay. Conditions: 100 μM. Background: Time-resolved FRET reads energy transfer from a long-lived donor to a nearby acceptor.
The target of series [3] is T2, hPXR (Homo sapiens, UniProt O75469).
T2 construct: literature Invitrogen
T2 sequence (O75469 1-434): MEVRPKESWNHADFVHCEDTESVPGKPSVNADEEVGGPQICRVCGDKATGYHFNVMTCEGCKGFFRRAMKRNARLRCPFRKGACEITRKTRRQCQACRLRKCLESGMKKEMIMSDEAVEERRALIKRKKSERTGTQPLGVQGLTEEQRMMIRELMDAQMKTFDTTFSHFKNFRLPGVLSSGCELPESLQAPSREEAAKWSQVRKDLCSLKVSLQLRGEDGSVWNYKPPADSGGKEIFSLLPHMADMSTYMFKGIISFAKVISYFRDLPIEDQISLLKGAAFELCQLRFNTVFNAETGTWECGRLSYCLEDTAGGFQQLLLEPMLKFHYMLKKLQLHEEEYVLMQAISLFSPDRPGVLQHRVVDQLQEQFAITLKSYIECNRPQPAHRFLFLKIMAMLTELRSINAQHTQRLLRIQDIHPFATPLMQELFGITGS
To be noted: cited from earlier work; for Activity (Fluormone PXR (SXR) Green as Probe), % at single concentration: 1000 μM, published report (Lau et al.).

The target in series [4] is T2, hPXR. Kind of series: Invitrogen hPXR TR-FRET binding kit, Fluormone PXR (SXR) Green as probe (published reports). Conditions: calculated from published data by equation 2.

Broadly, the Kd is a measure of binding affinity in units of concentration. Read a high Kd as weaker binding. On to `CC[C@]12C=CCN3CC[C@@]4(c5ccc(OC)cc5N(C)[C@H]4[C@@](O)(C(=O)OC)[C@@H]1OC(=O)CCC1=[N+]4C(C=C1)Cc1c(C)cc(C)n1[B-]4(F)F)[C@@H]32` (stereo partly drawn) [BODIPY Fl-vindoline, BODIPY FL vindoline], for which, in series [1], the affinity, expressed as Kd, was 256 nM.
For orientation: IC50 means the point on the concentration scale where inhibition reaches its midpoint. A word on the Ki: it is a measure of affinity in units of concentration, obtained from inhibition or displacement. As to `Clc1ccccc1C(c1ccccc1)(c1ccccc1)n1ccnc1` [Clotrimazole, clotrimazole], the “Solubility in the assay” value in series [2] is “incomplete solubility”. Moreover, the IC50 in series [3] (values from published reports, read-out: IC50 (Fluormone PXR (SXR) Green as Probe)) was 2000 nM. Further, the Ki in series [4] was 1000 nM.
Take `C[C@@H]1C(=O)O[C@H]2C[C@@]34[C@H]5C[C@@H](C(C)(C)C)[C@]36[C@@H](OC(=O)[C@@H]6O)O[C@@]4(C(=O)O5)[C@]21O` [Ginkgolide A, ginkgolide A]: the “Activity (Fluormone PXR (SXR) Green as Probe), % at single concentration” value in series [3] is 54% (1000 μM)^g.
Consider `CC1C(=O)OC2C(O)C34C5CC(C(C)(C)C)C36C(OC(=O)C6O)OC4(C(=O)O5)C12O` (stereo not drawn) [Ginkgolide B, ginkgolide B], for which the “Activity (Fluormone PXR (SXR) Green as Probe), % at single concentration” value in series [3] is recorded as 48% (1000 μM)^g.
